Test results from EPA's ToxValDB 9.5.
Values joined by “and” are separate entries in the source; they are usually repeats but may differ in a detail not shown here. Identical values can stand only once.

How the values were obtained:
Rattus norvegicus [1] = details: subchronic, oral, Fischer 344
Rattus norvegicus [2] = details: subchronic; duration: 90 days; oral; gavage; M/F; increased liver weight
Rattus norvegicus [3] = details: for LC50: acute, inhalation; for LOAEL / NOAEL: subchronic, oral
Mus musculus [4] = details: subchronic, duration: 13 weeks, oral, B6C3F1
Oryctolagus sp. = details: acute; dermal; occlusive
Rattus norvegicus [5] = details: subchronic; for NOAEL: oral, gavage
Rattus norvegicus [6] = details: repeat dose other; oral
Mus musculus [7] = details: repeat dose other; oral
Rattus norvegicus [8] = details: oral
Rattus norvegicus [9] = details: uterotrophic, Active
Mus musculus [10] = details: uterotrophic, duration: 3 days, Active
[11] = duration: 13 weeks, drinking water, Fischer 344
[12] = duration: 13 weeks, drinking water, Wistar
[13] = duration: 89 days, gavage, Sprague-Dawley

Question: For `c1ccncc1` [Pyridine], which NOEL (Rattus norvegicus [1]; duration: 13 weeks, water, M/F, Deaths + Body Weight Changes: decrease + Food Consumption: decrease + Hematology: RBC decrease, Hct decrease, Hgb decrease, Plt increase + …) is on record?
Answer: < 7.6 mg/kg-day

Question: And the LOAEL (Rattus norvegicus [2])?
Answer: 10 mg/kg-day

Question: What about the NOAEL (Rattus norvegicus [2]) of the same molecule?
Answer: 1 mg/kg-day

Question: What about the LC50 (Rattus norvegicus [3]) of the same molecule?
Answer: < 12900 mg/m3

Question: And the LC50 (Rattus norvegicus [3]; Crl:CD(SD) BR)?
Answer: ≥ 15900 mg/m3 and ≤ 19400 mg/m3

Question: What about the LC50 (Rattus norvegicus [3]; Sprague-Dawley) of the same molecule?
Answer: 29200 mg/m3 and 29100 mg/m3

Question: And the LOAEL (Rattus norvegicus [3]; [11])?
Answer: 38 mg/kg-day

Question: What about the NOAEL (Rattus norvegicus [3]; [11]) of the same molecule?
Answer: 15.2 mg/kg-day

Question: And the LOAEL (Rattus norvegicus [3]; [12])?
Answer: 38 mg/kg-day

Question: What about the NOAEL (Rattus norvegicus [3]; [12]) of the same molecule?
Answer: 15.2 mg/kg-day

Question: And the LOAEL (Rattus norvegicus [3]; duration: 13 weeks, gavage, Fischer 344)?
Answer: 12.5 mg/kg-day

Question: And the LOAEL (Rattus norvegicus [3]; [13])?
Answer: 10 mg/kg-day

Question: What about the NOAEL (Rattus norvegicus [3]; [13]) of the same molecule?
Answer: 1 mg/kg-day

Question: What about the LOAEL (Mus musculus [4]; drinking water) of the same molecule?
Answer: 26.5 mg/kg-day

Question: And the NOAEL (Mus musculus [4]; drinking water)?
Answer: 13.2 mg/kg-day

Question: What about the LOAEL (Mus musculus [4]; gavage) of the same molecule?
Answer: 25 mg/kg-day

Question: What about the LD50 (Oryctolagus sp.) of the same molecule?
Answer: ≥ 1000 mg/kg and ≤ 2000 mg/kg

Question: What about the NOAEL (Rattus norvegicus [5]; duration: 90 days, Liver: Increased relative weight + Liver: Increased weight) of the same molecule?
Answer: 1 mg/kg-day

Question: How did the NOAEL (Rattus norvegicus [6]) turn out when `CC(=O)CC(C)C` [4-Methyl-2-pentanone] was run?
Answer: 25 mg/kg-day

Question: And the NOAEL (Rattus norvegicus [5]; duration: 13 weeks, Kidney: Increased absolute weight in females + Kidney: Increased relative weight in females + Kidney: Increased urinary protein levels in …)?
Answer: 250 mg/kg-day

Question: And the NOEL (Rattus norvegicus [5]; duration: 90 days, inhalation, intermittent, Kidney: Effects + Liver: Increased weight)?
Answer: 205 mg/m3

Question: Which results are given for `[Na+].[O]=[Nb](=[O])[O-]` [Sodium niobate (NaNbO3)]?
Answer: LOAEL (Mus musculus [7]): 1.55 mg/kg-day; NOAEL (Mus musculus [7]): 0.155 mg/kg-day

Question: Which results are given for `Cc1ccc([N+](=O)[O-])cc1` [4-Nitrotoluene]?
Answer: LOAEL (Rattus norvegicus [8]; subchronic, duration: 13 weeks, diet, M, Fischer 344, Immune): 42 mg/kg-day; NOEL (Rattus norvegicus [1]; diet, F, Body Weight Changes: decrease + Food Consumption + Hematology: Hgb decrease, RBC decrease, MetHgb increase + Blood Chemistry: TP decrease, …): < 44 mg/kg-day; NOEL (Rattus norvegicus [1]; diet, M/F, Body Weight Changes: decrease + Food Consumption + Hematology: Hgb decrease, RBC decrease, MetHgb increase + Blood Chemistry: TP decrease, …): < 60 mg/kg-day; LEL (Rattus norvegicus [9]; duration: 1 days, injection, intraperitoneal): 30 mg/kg-day

Question: For `CNN` [Methylhydrazine], which NOAEL (Rattus norvegicus [8]; developmental, duration: 13 days, gavage, F, Sprague-Dawley, developmental) is on record?
Answer: 1 mg/kg-day

Question: How did the NOAEL (Rattus norvegicus [8]; chronic, duration: 95 days, diet, M, albino) turn out when `Clc1cc(Cl)c(Cl)c(-c2cc(Cl)c(-c3cc(Cl)c(Cl)c(Cl)c3)c(Cl)c2Cl)c1` [Aroclor 5460] was run?
Answer: 7.13 mg/kg-day

Question: Which LEL (Rattus norvegicus [9]; duration: 3 days, injection, intraperitoneal) does the source give for `C#C[C@]1(O)CC[C@H]2[C@@H]3CCc4cc(OC)ccc4[C@H]3CC[C@@]21C` [Mestranol] here?
Answer: 0.001 mg/day

Question: And the LEL (Rattus norvegicus [9]; duration: 3 days, oral)?
Answer: 0.01 mg/kg-day

Question: And the LEL (Rattus norvegicus [9]; duration: 14 days, oral)?
Answer: 0.001 mg/day

Question: And the LEL (Mus musculus [10]; injection, subcutaneous)?
Answer: 0.5 µg/0.1 mL

Question: And the “LEL (fractional dose of pill)” value (Mus musculus [10]; oral)?
Answer: 0.001

Question: With `Nc1cccc([N+](=O)[O-])c1` [3-Nitroaniline] as the molecule, how does the LOAEL (Rattus norvegicus [8]; short-term, duration: 28 days, gavage, M/F, Fischer 344) read?
Answer: 15 mg/kg-day

Question: `O=[N+]([O-])[O-].O=[N+]([O-])[O-].O=[N+]([O-])[O-].[Sm+3]` [Samarium nitrate] was tested. Which LOAEL (Rattus norvegicus [8]; chronic, duration: 5 months, drinking water, M/F, Sprague-Dawley) did it give?
Answer: 0.438 mg/kg-day

Question: For `ClC=C(Cl)CCl` [1,2,3-Trichloropropene], which NOAEL (Rattus norvegicus [8]; short-term, duration: 4 weeks, gavage, M/F, Crl:CD(SD), respiratory) is on record?
Answer: 30 mg/kg-day

Question: With `CCN(C=O)CC` [Diethylformamide] as the molecule, how does the NOAEL (Rattus norvegicus [8]; chronic, duration: 73 weeks, gavage, M, Wistar, Whole Body Effects) read?
Answer: 1.1 mg/kg-day
